The values that follow come from publication PMC11494886, “Discovery and design of molecular glue enhancers of CDK12–DDB1 interactions for targeted degradation of cyclin K” (RSC Chemical Biology, 2024).

Test [1] addresses T1, CDK12/cyclin K + DDB1 (Homo sapiens, UniProt Q16531+Q9NYV4, DEL396-705).
T1 construct: The kinase domain of human CDK12 (Uniprot: Q9NYV4; a.a; 715–1050); GST (N, cleaved yes); made in house; host or cells: Spodoptera frugiperda SF9 insect cells (Bac-to-Bac); CDK12/cyclin K co-infected with S. cerevisiae CAK1
Kind of test: Microscale thermophoresis, ternary complex formation. Format: binding. As to conditions: MST. As for the experimental part: Finally, the capacity of small molecules to induce a ternary complex between CDK12/cyclin K and DDB1 in vitro was assessed by microscale thermophoresis (MST). Labeled DDB1ΔBPB was combined with purified CDK12/cyclin K, and fluorescence intensity was monitored with increasing compound concentrations.
Cell pellets were harvested 48 hours post infection via centrifugation and lysed in buffer A (50 mM Tris–HCl (pH 8.0), 200 mM NaCl, 10 mM imidazole, 0.5 mM tris(2-carboxyethyl) phosphine (TCEP)) supplemented with EDTA-free Pierce™ protease inhibitor tablet (Thermo Fisher Scientific). […] The concentrated protein at 2 mg mL^−1 was flash-frozen in liquid nitrogen and stored at −80 °C.
Full-length S. cerevisiae CAK1 (Uniprot: P43568) with an N-terminal His6 tag was subcloned into pFastBac 1 vector. […] The eluted CDK12/cyclin K complex was concentrated to 2 mg mL^−1, flash-frozen in liquid nitrogen and stored at −80 °C.
A protocol to assess ternary binding of molecular glues with CDK12/cycK and DDB1 by MST was established using published procedures for PROTAC interaction with bromodomains and E3 ubiquitin ligases.[38] His8-DDB1-ΔBPB was labeled with the MO-L018 Monolith™ His-tag Labeling Kit RED-tris-NTA 2nd Generation (NanoTemper Technologies) following the instruction manual. 100 nM dye was mixed with 200 nM DDB1 in 50 mM HEPES pH 7.5, 150 mM NaCl, 5% glycerol, 0.05% Tween, and incubated at room temperature for 30 min. […] MST traces were recorded using standard parameters: 5 s MST power off, 30 s MST power on and 5 s MST power off. Measurements were taken at −1 to 0 s (cold region) and 9–10 s (hot region). Data were analyzed using a fitting function derived from the law of mass action:1 [drawing 6] where f(c) is the fluorescence signal (Fnorm) at a given ligand concentration (c), B is Fnorm of fully liganded DDB1 at high ligand concentrations, U is Fnorm of DDB1 alone at low ligand concentrations, Kd is the dissociation constant or binding affinity, cT is the final concentration of DDB1 in the assay (Fig. 3G). For normalization, the data were first transformed using eqn (2) where y is the fraction bound, followed by fitting to eqn (3) (Fig. 5B–E).2 [drawing 7] 3 [drawing 8]

Test [2] relates to cyclin K. As to the kind of experiment: Immunofluorescence of nuclear cyclin K in MDA-MB-231 cells. Format: cell-based, human. How it is done: Cells were fixed with 4% PFA in PBS at room temperature, permeabilized with 0.1% Triton X-100 in PBS, and blocked with 3% BSA in PBS at room temperature. Cells were incubated with primary antibodies overnight at 4 °C, followed by incubation with Alexa-Fluor conjugated secondary antibodies for 1 hour at room temperature. Cell nuclei were stained using DAPI. Images were acquired on a confocal microscope (Leica). ImageJ and QuPath were used for image analysis.
Figure S8. Immunofluorescence staining for cyclin K degradation. MDA-MB-231 cells were
treated for 2 h with either DMSO or the indicated compounds (0.5 µM) . Cells were fixed and
Nuclei were stained with DAPI (blue). […]

Test [3] relates to MDA-MB-231 cells. As to the kind of experiment: CellTiter-Glo viability assay, WT MDA-MB-231. It counts as cell-based. As to conditions: Homo sapiens; wild type MDA-MB-231; read-out: EC50 (WT) cell viability. The text has this: MDA-MB-231 (human triple-negative breast cancer cells) and HEK293T (human embryonic kidney cells) were purchased from the American type culture collection (ATCC) and maintained in Dulbecco's modified Eagle's medium (DMEM) (Gibco) supplemented with 10% (v/v) heat-inactivated fetal bovine serum (FBS) (Gibco) and penicillin/streptomycin (100 U mL^−1 each). HiBiT-CCNK KI A549 cells, purchased from Promega, were maintained in F12 medium supplemented with 10% (v/v) heat-inactivated fetal bovine serum (FBS) (Gibco) and penicillin/streptomycin (100 U mL^−1 each). DDB1-knockdown MDA-MB-231 and DDB1-knockdown HEK293T cell lines were maintained in the same media formulation as their corresponding wild-type cell lines. All cell lines were cultured at 37 °C in an incubator with CO2 levels maintained at 5%.
(§1) Cell viability was measured by Cell Titer Glo assay kit (Promega, USA). EC50 was determined from the nonlinear regression and a four-parameter algorithm on the GraphPad Prism software.
For orientation: ATP-based viability assays read luminescence as a measure of living cells.

Test [4] deals with MDA-MB-231DDB1-shRNA cells. Kind of test: CellTiter-Glo viability assay, MDA-MB-231 DDB1-shRNA. It counts as cell-based, human. As to conditions: Homo sapiens; MDA-MB-231 DDB1-shRNA; read-out: EC50 (DDB1 shRNA) cell viability.
From the text: For stable genetic knock-down of DDB1 in cells, predesigned and validated TRC2-pLKO-puro shRNA plasmids for DDB1 (TRCN0000082855 and TRCN0000082856), and a non-targeting shRNA plasmid (SHC001) were obtained from Millipore Sigma. All plasmids were purified using the Qiagen Maxiprep kit (Qiagen). FuGENE HD 6 transfection reagent (Promega) was used for transfection of plasmids and lentiviral gene/shRNA constructs. Mission lentiviral packaging mix (Millipore Sigma) was used to package lentiviral plasmids into lentiviral particles in HEK293T cells, as per manufacturer's protocols. The resultant virus was concentrated using Vivaspin 20 centrifugal concentrators (Sartorius). MDA-MB-231 and HEK293T cells were transduced with lentivirus. Stable knocked down DDB1 (shDDB1-231 and shDDB1-HEK293T) cells were generated after selection with the antibiotic puromycin, and genetic knockdown was confirmed by western blotting.
as §1

Test [5] has as its system cyclin K. Kind of test: Immunoblot of cyclin K levels in MDA-MB-231 cells. It counts as cell-based, human. As to conditions: SR-4835 500 nM, SR-4784 1-2 μM 2 hours, SR-4784-PAP 2 μM 2 hours. As for the experimental part:
THZ531 was used as a negative control as it is known to make a covalent bond with Cys1039 in a C-terminal extension of the kinase domain, thereby preventing this helix-loop-helix (HLH)-like fold from binding in a cleft between the DDB1 BPA and BPC domains (Fig. 1B, right panels). […] An immunofluorescence-based assay developed for visualizing loss of nuclear cyclin K also confirmed the above observations (Fig. 1H and Fig. S1, ESI ^†).
Total cell lysates were prepared using RIPA lysis buffer (Millipore Sigma) supplemented with protease and phosphatase inhibitors (Roche). Protein concentrations were estimated using the BCA protein assay kit (Pierce, Thermo Fisher Scientific). Equal amounts of proteins were separated using NuPAGE 4–12% Bis-Tris gels (Thermo Fisher Scientific). For CLICK chemistry pulldown experiments, proteins in the eluates were resolved using 3–8% Tris–acetate gels (Thermo Fisher Scientific). Proteins were transferred to nitrocellulose membranes using NuPAGE transfer buffer (Thermo Fisher Scientific). Membranes were blocked in LI-COR blocking buffer for 1 hour at room temperature and then probed with primary antibodies diluted in the same blocking buffer overnight at 4 °C. To detect the primary antibodies, membranes were incubated with IR-680 or IR-800 conjugated secondary antibodies (LI-COR) diluted in LI-COR blocking buffer at room temperature for 1 hour. Washes with 0.01% Tween-phosphate buffer were performed after primary and secondary antibody incubation steps. Signals from the membrane were recorded by scanning on a LI-COR Odyssey imager. Bands were quantified using Image Studio Lite (LI-COR Biosciences) or the ImageJ program.
To visualize the degradation of cyclin K, total cell lysates were subjected to SDS-PAGE and western blotting.
(In general: Immunoblotting shows a protein as a band on a membrane.)

The mark [6] stands for this setting: labeled DDB1 + CDK12/cyclin K, run #1, read-out: Kd ternary complex formation, replicate #1.
The mark [7] stands for this setting: labeled DDB1 + CDK12/cyclin K, run #2, read-out: Kd ternary complex formation, replicate #2.
[8] abbreviates: labeled DDB1 + CDK12/cyclin K, run #3, read-out: Kd ternary complex formation, replicate #3.
[9] abbreviates: labeled DDB1ΔBPB 10 nM + CDK12/cyclin K 1000 nM, mean of replicates, read-out: Kd ternary complex formation (average).

The Kd is the equilibrium constant for the complex coming apart. Broadly, the EC50 is the concentration that produces a half-maximal response.

Where two headings read alike, the source gives them in different places.

T1 sequence (Q16531 with tags, fused parts or gaps DEL396-705): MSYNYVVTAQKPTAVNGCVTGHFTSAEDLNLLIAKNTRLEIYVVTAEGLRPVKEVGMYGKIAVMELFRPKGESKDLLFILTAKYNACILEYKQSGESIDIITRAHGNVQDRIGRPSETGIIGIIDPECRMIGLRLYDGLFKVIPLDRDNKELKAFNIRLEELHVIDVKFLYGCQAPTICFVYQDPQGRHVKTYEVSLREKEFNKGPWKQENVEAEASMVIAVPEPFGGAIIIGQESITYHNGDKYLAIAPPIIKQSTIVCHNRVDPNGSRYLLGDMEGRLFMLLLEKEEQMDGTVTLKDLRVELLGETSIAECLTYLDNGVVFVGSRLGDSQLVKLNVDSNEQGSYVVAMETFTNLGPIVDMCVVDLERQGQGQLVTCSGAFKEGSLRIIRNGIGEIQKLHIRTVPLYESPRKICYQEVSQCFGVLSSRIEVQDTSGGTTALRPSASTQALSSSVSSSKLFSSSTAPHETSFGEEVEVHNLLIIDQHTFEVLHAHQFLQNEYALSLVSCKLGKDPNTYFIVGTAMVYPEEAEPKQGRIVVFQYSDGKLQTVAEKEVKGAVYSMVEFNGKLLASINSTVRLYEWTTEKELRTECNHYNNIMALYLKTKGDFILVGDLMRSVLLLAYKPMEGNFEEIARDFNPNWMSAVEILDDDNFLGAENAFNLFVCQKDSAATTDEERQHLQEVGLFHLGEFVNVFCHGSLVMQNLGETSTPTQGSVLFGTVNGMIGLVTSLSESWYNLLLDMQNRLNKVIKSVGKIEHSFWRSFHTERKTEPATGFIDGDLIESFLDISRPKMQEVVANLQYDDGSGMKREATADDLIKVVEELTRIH
T1 sequence (Q9NYV4 715-1050, stated change not applied): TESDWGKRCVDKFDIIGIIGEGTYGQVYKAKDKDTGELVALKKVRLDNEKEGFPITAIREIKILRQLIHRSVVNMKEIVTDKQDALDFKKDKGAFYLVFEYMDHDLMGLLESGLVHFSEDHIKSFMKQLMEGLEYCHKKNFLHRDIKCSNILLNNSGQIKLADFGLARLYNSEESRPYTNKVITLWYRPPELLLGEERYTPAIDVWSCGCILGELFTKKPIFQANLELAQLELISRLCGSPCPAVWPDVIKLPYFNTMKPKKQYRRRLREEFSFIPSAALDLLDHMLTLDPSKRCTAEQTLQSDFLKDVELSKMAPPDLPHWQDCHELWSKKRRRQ
T1 sequence (O75909 11-267 partner limits assumed): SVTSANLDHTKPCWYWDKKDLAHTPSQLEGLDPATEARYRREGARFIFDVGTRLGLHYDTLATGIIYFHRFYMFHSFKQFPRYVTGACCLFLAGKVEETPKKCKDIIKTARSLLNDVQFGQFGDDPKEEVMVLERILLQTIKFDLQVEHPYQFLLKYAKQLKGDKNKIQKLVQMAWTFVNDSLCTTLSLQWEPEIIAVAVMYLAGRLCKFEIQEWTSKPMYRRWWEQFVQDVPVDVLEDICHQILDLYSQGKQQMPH

Take `Cn1cc(-c2cnn3c(NCc4nc5cc(Cl)c(Cl)cc5[nH]4)nc(N4CCOCC4)nc23)cn1` [MR-1014, N-((5,6-Dichloro-1H-benzo[d]imidazol-2-yl)methyl)-8-(1-methyl-1H-pyrazol-4-yl)-2-morpholinopyrazolo[1,5-a][1,3,5]triazin-4-amine]: the Kd in test [1] (setting [6]) stood at 409 ± 117 nM; in test [1] (setting [7]), 347 ± 98.3 nM; in test [1] (setting [8]), 528 ± 295 nM; in test [1] (setting [9]), 428 nM. Further, the “cyclin K nuclear intensity compared to control” value in test [2] (MDA-MB-231 cells, 0.5 µM, 2 h) is recorded as “reduced”.
With `Clc1cccc2nc(CNc3cc(N4CCNCC4)nn4c(-c5ccsc5)cnc34)[nH]c12` [MR-1110, N-((7-Chloro-1H-benzo[d]imidazol-2-yl)methyl)-6-(piperazin-1-yl)-3-(thiophen-3-yl)imidazo[1,2-b]pyridazin-8-amine], the Kd in test [1] (setting [6]) was 24.3 ± 9 nM; in test [1] (setting [7]) it was 31.3 ± 17.4 nM; in test [1] (setting [8]), 37.6 ± 23.3 nM; in test [1] (setting [9]) it was 31.1 ± 6.7 nM. Moreover, in test [2] (MDA-MB-231 cells, 0.5 µM, 2 h), the “cyclin K nuclear intensity compared to control” value is given as “reduced”.
Consider `CN1CC=C(c2cn3c(-c4cnn(C(F)F)c4)cnc3c(NCc3nc4cc(Cl)c(Cl)cc4[nH]3)n2)CC1` [MR-1187, N-((5,6-Dichloro-1H-benzo[d]imidazol-2-yl)methyl)-3-(1-(difluoromethyl)-1H-pyrazol-4-yl)-6-(1-methyl-1,2,3,6-tetrahydropyridin-4-yl)imidazo[1,2-a]pyrazin-8-amine], for which the Kd in test [1] (setting [6]) was found to be 137 ± 33.3 nM; in test [1] (setting [7]) it was 122 ± 54.6 nM; in test [1] (setting [8]), 152 ± 63.7 nM; in test [1] (setting [9]), 137 ± 15 nM. Besides, the “cyclin K nuclear intensity compared to control” value in test [2] (MDA-MB-231 cells, 0.5 µM, 2 h) is recorded as “reduced”.
Regarding `Cn1cc(-n2cnc3c(NCc4nc5cc(Cl)c(Cl)cc5[nH]4)nc(N4CCNCC4)nc32)cn1` [SR-4784, N-((5,6-dichloro-1H-benzo[d]imidazol-2-yl)methyl)-9-(1-methyl-1H-pyrazol-4-yl)-2-(piperazin-1-yl)-9H-purin-6-amine], the EC50 in test [3] stood at 263 nM; in test [4], 796 nM. Besides, the “cyclin K degradation (immunoblot)” value in test [5] is “induced cyclin K degradation”.
Take `C#CCCC1(CCC(=O)N2CCN(c3nc(NCc4nc5cc(Cl)c(Cl)cc5[nH]4)c4ncn(-c5cnn(C)c5)c4n3)CC2)N=N1` [SR-4784-PAP, 3-(3-(But-3-yn-1-yl)-3H-diazirin-3-yl)-1-(4-(6-(((5,6-dichloro-1H-benzo[d]imidazol-2-yl)methyl)amino)-9-(1-methyl-1H-pyrazol-4-yl)-9H-purin-2-yl)piperazin-1-yl)propan-1-one]: in test [5], the “cyclin K degradation (immunoblot)” value is “degraded cyclin K in a proteasome-dependent manner”.
Regarding `CCc1cnn2c(NCc3ccc[n+]([O-])c3)cc(N3CCCC[C@H]3CCO)nc12` [dinaciclib, reference compound], the “ability to induce ternary complex” value in test [1] (labeled DDB1ΔBPB + CDK12/cyclin K) is “lacked the ability to induce a ternary complex”. In addition, the “cyclin K nuclear intensity compared to control” value in test [2] was “not affected”.
